tested on: blood-brain barrier; assay: Enhancement of blood-brain barrier permeation of P-glycoprotein substrate compounds by piperine; conditions: P-glycoprotein substrate compound combined with piperine

Row | Structure (SMILES) | Permeation across the blood-brain barrier / bioavailability when combined with piperine
1 | CC(/C=C/C=C(\C)C(=O)O)=C\C=C\C=C(C)\C=C\C=C(/C)C(=O)O [crocetin] | enhanced
2 | CC(/C=C/C=C(\C)C(=O)O[C@@H]1O[C@H](CO[C@@H]2O[C@H](CO)[C@@H](O)[C@H](O)[C@H]2O)[C@@H](O)[C@H](O)[C@H]1O)=C\C=C\C=C(C)\C=C\C=C(/C)C(=O)O[C@@H]1O[C@H](CO[C@@H]2O[C@H](CO)[C@@H](O)[C@H](O)[C@H]2O)[C@@H](O)[C@H](O)[C@H]1O [crocin] | enhanced
3 | CC1=C(C)C(=O)O[C@@H]([C@](C)(O)[C@H]2CC[C@H]3[C@@H]4[C@@H]5O[C@@H]5[C@@]5(O)CC=CC(=O)[C@]5(C)[C@H]4CC[C@]23C)C1 [withanolide A] | enhanced
4 | CC1=C(C)C(=O)O[C@@H]([C@@H](C)[C@@]2(O)CC[C@H]3[C@@H]4[C@@H]5O[C@@H]5[C@@]5(O)CC=CC(=O)[C@]5(C)[C@H]4CC[C@@]32C)C1 [withanone] | enhanced
